Measured values from PubChem BioAssay (NCI).
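A five-concentration, 48-hour dose response in 96-well plates underlies each endpoint, interpolated linearly between surrounding concentrations. GI50: concentration for 50% inhibition of growth. Definition used: TGI = concentration required for complete inhibition of growth.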

Key:
Test in all cases: inhibition of tumour cell growth, NCI panel, 48 h
786-0 renal = tested on: 786-0 renal
ACHN renal = tested on: ACHN renal
HOP-62 NSCLC = tested on: HOP-62 NSCLC
HOP-92 NSCLC = tested on: HOP-92 NSCLC
M14 melanoma = tested on: M14 melanoma
SF-295 CNS = tested on: SF-295 CNS
SF-539 CNS = tested on: SF-539 CNS
SNB-19 CNS = tested on: SNB-19 CNS
HCC-2998 colon = tested on: HCC-2998 colon
MDA-MB-435 = tested on: MDA-MB-435

Compound	TGI (786-0 renal) [µM]	TGI (ACHN renal) [µM]	TGI (HOP-62 NSCLC) [µM]	TGI (HOP-92 NSCLC) [µM]	TGI (M14 melanoma) [µM]	TGI (SF-295 CNS) [µM]	TGI (SF-539 CNS) [µM]	TGI (SNB-19 CNS) [µM]	TGI (HCC-2998 colon) [µM]	GI50 (786-0 renal) [µM]	GI50 (ACHN renal) [µM]	GI50 (HOP-62 NSCLC) [µM]	GI50 (HOP-92 NSCLC) [µM]	GI50 (M14 melanoma) [µM]	GI50 (MDA-MB-435) [µM]	TGI (MDA-MB-435) [µM]	GI50 (SF-295 CNS) [µM]	GI50 (SF-539 CNS) [µM]	GI50 (SNB-19 CNS) [µM]	GI50 (HCC-2998 colon) [µM]
COc1ccc2c(c1)[n+]([O-])c(-c1ccc([N+](=O)[O-])cc1)c(N)[n+]2[O-]	> 100	> 100	> 100	> 100	> 100	> 100	> 100	> 100	–	–	–	–	–	–	–	–	–	–	–	–
CC(=O)Nc1ccc(/C=c2\sc3nnc(CCC(=O)Nc4ccccc4Cl)n3c2=O)cc1	48.9	> 100	> 100	57.7	35.8	38.9	58	> 100	> 10	–	–	–	–	–	–	–	–	–	–	–
Cc1ccc(S(=O)(=O)c2ccc(NC(=O)SCCC(=O)O)cc2)cc1	> 100	> 100	> 100	–	> 100	> 100	> 100	> 100	> 100	–	–	–	–	–	–	–	–	–	–	–
COC(=O)C(Cc1nc2ccccc2[nH]c1=O)/C(=N\NC(C)(C)C)C(=O)Nc1c(C)cc(Br)cc1C (centres undefined)	34.4	> 100	> 100	45.5	49.3	> 100	44.5	> 100	> 100	–	–	–	–	–	–	–	–	–	–	–
COc1ccccc1NC(=O)C1=C(C)NC(C)=C(C(=O)Nc2ccccc2OC)C1C1=CC=COC1	> 100	> 100	> 100	83.8	22.5	40.7	30.7	84.2	50.2	–	–	–	–	–	–	–	–	–	–	–
COC1=CC(c2ccc[nH]2)=N/C1=C\c1[nH]c(C)c(CC(=O)OCc2ccccc2)c1CCC(=O)OCc1ccccc1	1.53	1.02	2.39	0.809	0.573	1.3	1.74	> 100	–	0.376	0.333	0.365	0.231	0.223	0.412	1.64	0.305	0.458	1.72	–
CCOC(=O)C1SC(=Nc2cccc(Cl)c2C)N=C1C (centres undefined)	31.8	77.5	> 100	30.4	–	39.7	74	> 100	> 10	–	–	–	–	–	–	–	–	–	–	–
CCOC(=O)c1ccc2c(c1)Cc1cc([N+](=O)[O-])ccc1-2	> 100	> 100	> 100	> 100	> 100	> 100	> 100	> 100	–	–	–	–	–	–	–	> 100	–	–	–	–
CN1C(=O)CCC2[C@@H]3CC=C4C[C@@H](O)CC[C@]4(C)C3CC[C@@]21C (some centres undefined)	> 100	> 100	> 100	–	> 100	> 100	> 100	–	> 100	–	–	–	–	–	–	–	–	–	–	–
c1ccc([CH2][Sn]([CH2]c2ccccc2)([O]c2cccc3cccnc23)[O]c2cccc3cccnc23)cc1	0.385	2.2	0.515	2.46	1.75	1.92	0.677	2.49	0.418	0.155	1.03	0.207	1.19	0.46	–	–	0.579	0.248	1.15	0.201
CCN(CC)CC(C)(C)C(=O)/C=C/c1cccc(/C=C/C(=O)C(C)(C)CN(CC)CC)c1	1.87	2.38	5.14	1.68	2.82	3.28	2.27	3.89	2.51	–	–	–	–	–	–	–	–	–	–	–
O=S(=O)([O-])c1ccc(N=Cc2ccccc2[O-])cc1.O=S(=O)([O-])c1ccc(N=Cc2ccccc2[O-])cc1.[O]=[U+2]=[O]	> 100	> 100	> 100	> 100	> 100	> 100	> 100	> 100	–	42.7	> 100	81.7	> 100	> 100	–	–	> 100	54.7	66.4	–
C=CC(=O)NCCSCCCOC1(C(=O)O)CC(O)C(NC(C)=O)C(C(O)C(O)CO)O1 (centres undefined)	> 100	> 100	–	> 100	> 100	> 100	> 100	> 100	> 100	–	–	–	–	–	–	–	–	–	–	–
CC1=C(O)c2cn(C)cc2C(=O)C1=O	> 100	> 100	> 100	> 100	> 100	> 100	> 100	> 100	> 100	–	–	–	–	–	–	–	–	–	–	–
CN(C)c1ccc(/C=C/C(=O)[O-])cc1.CN(C)c1ccc(/C=C/C(=O)[O-])cc1.[Cu+2]	> 100	> 100	> 100	–	> 100	> 100	> 100	> 100	> 100	59.5	–	–	–	–	–	–	–	–	–	–
